In US9540392B2, “Thienopyrimidines” (BAYER PHARMA AKTIENGESELLSCHAFT, priority 2012, dated 2017):

target: T1, human full-length MKNK1 (Homo sapiens, UniProt Q9BUB5, T385D); assay: MKNK1 kinase high ATP assay (TR-FRET); format: biochemical; conditions: 2 mM ATP, after preincubation with MKNK1; read-out: MKNK1 IC50 (MKNK1 high ATP)
T1 construct: GST (N); purchased Carna Biosciences 02-145; host or cells: insect cells (baculovirus expression system)
Method in brief: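 Compound was preincubated 15 min at 22° C. with MKNK1 in 50 mM HEPES pH 7.5, 5 mM MgCl2, 1.0 mM DTT, then the reaction ran 30 min at 22° C. with 2 mM ATP and 0.06 μM biotinylated peptide (final).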

T1 sequence (Q9BUB5 1-424 isoform Q9BUB5-2 T344D): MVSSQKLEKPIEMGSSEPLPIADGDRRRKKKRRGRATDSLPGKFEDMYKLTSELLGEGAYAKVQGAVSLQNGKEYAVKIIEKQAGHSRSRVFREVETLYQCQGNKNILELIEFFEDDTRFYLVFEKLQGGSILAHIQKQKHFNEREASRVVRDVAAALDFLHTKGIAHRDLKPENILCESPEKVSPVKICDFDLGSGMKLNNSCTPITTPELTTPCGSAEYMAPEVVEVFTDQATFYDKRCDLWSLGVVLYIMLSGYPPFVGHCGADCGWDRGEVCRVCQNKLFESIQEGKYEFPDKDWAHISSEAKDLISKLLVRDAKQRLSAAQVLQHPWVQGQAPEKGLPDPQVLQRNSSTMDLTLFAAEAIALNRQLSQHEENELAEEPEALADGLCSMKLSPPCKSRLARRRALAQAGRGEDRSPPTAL

Row | SMILES | IC50
1 | O=C(NCc1cccnc1)C1CCc2c(sc3ncnc(Nc4ccc5[nH]ncc5c4)c23)C1 (stereo not shown) [Example 32, 4-(1H-Indazol-5-ylamino)-N-(pyridin-3-ylmethyl)-5,6,7,8-tetrahydro[1] benzothieno [2,3-d]pyrimidine-7-carboxamide] | 5 nM
2 | O=C(NCC(F)(F)F)C1CCc2c(sc3ncnc(Nc4ccc5[nH]ncc5c4)c23)C1 (stereo not shown) [Example 33, 4-(1H-Indazol-5-ylamino)-N-(2,2,2-trifluoroethyl)-5,6,7,8-tetrahydro[1] benzothieno [2,3-d]pyrimidine-7-carboxamide] | 5 nM
3 | CN(C)c1ccc(CNC(=O)C2CCc3c(sc4ncnc(Nc5ccc6[nH]ncc6c5)c34)C2)cc1 (stereo not shown) [Example 34, N-[4-(Dimethylamino)benzyl]-4-(1H-indazol-5-ylamino)-5,6,7,8-tetrahydro[1] benzothieno [2,3-d]pyrimidine-7-carboxamide] | 5 nM
4 | C#CCN(C)C(=O)C1CCc2c(sc3ncnc(Nc4ccc5[nH]ncc5c4)c23)C1 (stereo not shown) [Example 35, 4-(1H-Indazol-5-ylamino)-N-methyl-N-(prop-2-yn-1-yl)-5,6,7,8-tetrahydro[1] benzothieno [2,3-d]pyrimidine-7-carboxamide] | 5 nM
5 | O=C(NCCc1ccncc1)C1CCc2c(sc3ncnc(Nc4ccc5[nH]ncc5c4)c23)C1 (stereo not shown) [Example 36, 4-(1H-Indazol-5-ylamino)-N-[2-(pyridin-4-yl)ethyl]-5,6,7,8-tetrahydro[1] benzothieno [2,3-d]pyrimidine-7-carboxamide] | 6 nM
6 | O=C(NCCc1ccccc1)C1CCc2c(sc3ncnc(Nc4ccc5[nH]ncc5c4)c23)C1 (stereo not shown) [Example 37, 4-(1H-Indazol-5-ylamino)-N-(2-phenylethyl)-5,6,7,8-tetrahydro[1] benzothieno [2,3-d]pyrimidine-7-carboxamide] | 6 nM
7 | CN(C)CCNC(=O)C1CCc2c(sc3ncnc(Nc4ccc5[nH]ncc5c4)c23)C1 (stereo not shown) [Example 38, N-[2-(Dimethylamino)ethyl]-4-(1H-indazol-5-ylamino)-5,6,7,8-tetrahydro[1] benzothieno [2,3-d]pyrimidine-7-carboxamide] | 6 nM
8 | CC(C)CNC(=O)C1CCc2c(sc3ncnc(Nc4ccc5[nH]ncc5c4)c23)C1 (stereo not shown) [Example 39, 4-(1H-Indazol-5-ylamino)-N-(2-methylpropyl)-5,6,7,8-tetrahydro[1] benzothieno [2,3-d]pyrimidine-7-carboxamide] | 6 nM
9 | CN(C)CCCNC(=O)C1CCc2c(sc3ncnc(Nc4ccc5[nH]ncc5c4)c23)C1 (stereo not shown) [Example 40, N-[3-(Dimethylamino)propyl]-4-(1H-indazol-5-ylamino)-5,6,7,8-tetrahydro[1] benzothieno [2,3-d]pyrimidine-7-carboxamide] | 7 nM
10 | CN(CCO)C(=O)C1CCc2c(sc3ncnc(Nc4ccc5[nH]ncc5c4)c23)C1 (stereo not shown) [Example 41, N-(2-Hydroxyethyl)-4-(1H-indazol-5-ylamino)-N-methyl-5,6,7,8-tetrahydro[1] benzothieno [2,3-d]pyrimidine-7-carboxamide] | 8 nM
11 | O=C(NCCN1CCOCC1)C1CCc2c(sc3ncnc(Nc4ccc5[nH]ncc5c4)c23)C1 (stereo not shown) [Example 42, 4-(1H-Indazol-5-ylamino)-N-[2-(morpholin-4-yl)ethyl]-5,6,7,8-tetrahydro[1] benzothieno [2,3-d]pyrimidine-7-carboxamide] | 9 nM
12 | O=C(C1CCc2c(sc3ncnc(Nc4ccc5[nH]ncc5c4)c23)C1)N1CCC1 (stereo not shown) [Example 43, Azetidin-1-yl[4-(1H-indazol-5-ylamino)-5,6,7,8-tetrahydro[1]benzothieno [2,3-d]pyrimidin-7-yl]methanone] | 9 nM
13 | O=C(NC1CC1)C1CCc2c(sc3ncnc(Nc4ccc5[nH]ncc5c4)c23)C1 (stereo not shown) [Example 44, N-Cyclopropyl-4-(1H-indazol-5-ylamino)-5,6,7,8-tetrahydro[1] benzothieno [2,3-d]pyrimidine-7-carboxamide] | 9 nM
14 | CN(C)CCN(C)C(=O)C1CCc2c(sc3ncnc(Nc4ccc5[nH]ncc5c4)c23)C1 (stereo not shown) [Example 45, N-[2-(Dimethylamino)ethyl]-4-(1H-indazol-5-ylamino)-N-methyl-5,6,7,8-tetrahydro[1] benzothieno [2,3-d]pyrimidine-7-carboxamide] | 9 nM
15 | CCNC(=O)C1CCc2c(sc3ncnc(Nc4ccc5[nH]ncc5c4)c23)C1 (stereo not shown) [Example 46, N-Ethyl-4-(1H-indazol-5-ylamino)-5,6,7,8-tetrahydro[1] benzothieno [2,3-d]pyrimidine-7-carboxamide] | 10 nM
16 | O=C(C1CCc2c(sc3ncnc(Nc4ccc5[nH]ncc5c4)c23)C1)N1CCOCC1 (stereo not shown) [Example 47, [4-(1H-Indazol-5-ylamino)-5,6,7,8-tetrahydro[1]benzothieno [2,3-d]pyrimidin-7-yl](morpholin-4-yl)methanone] | 11 nM

Results, then the molecule that gave them:

Row | IC50 | SMILES
17 | 12 nM | COCCCNC(=O)C1CCc2c(sc3ncnc(Nc4ccc5[nH]ncc5c4)c23)C1 (stereo not shown) [Example 48, 4-(1H-Indazol-5-ylamino)-N-(3-methoxypropyl)-5,6,7,8-tetrahydro[1] benzothieno [2,3-d]pyrimidine-7-carboxamide]
18 | 13 nM | O=C(NCCCN1CCCC1=O)C1CCc2c(sc3ncnc(Nc4ccc5[nH]ncc5c4)c23)C1 (stereo not shown) [Example 49, 4-(1H-Indazol-5-ylamino)-N-[3-(2-oxopyrrolidin-1-yl)propyl]-5,6,7,8-tetrahydro[1] benzothieno [2,3-d]pyrimidine-7-carboxamide]
19 | 14 nM | COCCNC(=O)C1CCc2c(sc3ncnc(Nc4ccc5[nH]ncc5c4)c23)C1 (stereo not shown) [Example 50, 4-(1H-Indazol-5-ylamino)-N-(2-methoxyethyl)-5,6,7,8-tetrahydro[1] benzothieno [2,3-d]pyrimidine-7-carboxamide]
20 | 15 nM | O=C(C1CCc2c(sc3ncnc(Nc4ccc5[nH]ncc5c4)c23)C1)N1CCCC1 (stereo not shown) [Example 51, [4-(1H-Indazol-5-ylamino)-5,6,7,8-tetrahydro[1]benzothieno [2,3-d]pyrimidin-7-yl](pyrrolidin-1-yl)methanone]
21 | 20 nM | O=C(C1CCc2c(sc3ncnc(Nc4ccc5[nH]ncc5c4)c23)C1)N1CCN(C(=O)N2CCCC2)CC1 (stereo not shown) [Example 52, [4-(1H-Indazol-5-ylamino)-5,6,7,8-tetrahydro[1]benzothieno [2,3-d]pyrimidin-7-yl][4-(pyrrolidin-1-ylcarbonyl)piperazin-1-yl]methanone]
22 | 9 nM | CCOC(=O)C1CCc2c(sc3ncnc(Nc4cc5cn[nH]c5cc4Cl)c23)C1 (stereo not shown) [Example 53, Ethyl 4-[(6-chloro-1H-indazol-5-yl)amino]-5,6,7,8-tetrahydro[1]benzothieno[2,3-d]pyrimidine-7-carboxylate]
23 | 19 nM | CCOC(=O)C1CCc2c(sc3ncnc(Nc4cc5cn[nH]c5cc4F)c23)C1 (stereo not shown) [Example 54, Ethyl 4-[(6-fluoro-1H-indazol-5-yl)amino]-5,6,7,8-tetrahydro[1]benzothieno[2,3-d]pyrimidine-7-carboxylate]
24 | 37 nM | O=C(O)C1CCc2c(sc3ncnc(Nc4cc5cn[nH]c5cc4F)c23)C1 (stereo not shown) [Example 55, 4-[(6-Fluoro-1H-indazol-5-yl)amino]-5,6,7,8-tetrahydro[1]benzothieno[2,3-d]pyrimidine-7-carboxylic acid]
25 | 7 nM | COc1cc2[nH]ncc2cc1Nc1ncnc2sc3c(c12)CCC(C(=O)O)C3 (stereo not shown) [Example 57, 4-[(6-Methoxy-1H-indazol-5-yl)amino]-5,6,7,8-tetrahydro[1]benzothieno[2,3-d]pyrimidine-7-carboxylic acid]
